Among the test systems are HCT-15 colon; SF-295 CNS; ACHN renal; SF-268 CNS; U251 CNS; HT29 colon; OVCAR-5 ovarian; OVCAR-3 ovarian; HCT-116 colon; HL-60(TB) leukemia.
Experiment in all cases: DTP human tumour cell line panel, 48 h

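Where inhibition never reached the appropriate level, the endpoint shown equals the highest concentration tested. Otherwise, values were interpolated linearly from a five-concentration, 48-hour dose response in 96-well plates. GI50 = concentration required for 50% inhibition of growth. TGI marks complete inhibition of growth.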

In the case of `O=C(NCCC1CN(S(=O)(=O)C(F)(F)F)c2ccccc21)OCc1ccccc1` (stereo not drawn), the concentration for total growth inhibition (TGI) in the experiment with HCT-15 colon, in the experiment on SF-295 CNS, in the experiment with ACHN renal, in the experiment with SF-268 CNS, in the experiment on U251 CNS and with HT29 colon was above 100 µM in each case. Besides, the total growth inhibition concentration (TGI) in the experiment with OVCAR-5 ovarian, in the experiment on OVCAR-3 ovarian and in the experiment with HCT-116 colon was above 100 µM in each case.

As for `CN(C)CCCN=c1c2ccccc2n(C)c2[nH]c(=O)n(C)c(=O)c12`, the TGI in the experiment with HCT-15 colon is above 100 µM; in the experiment with SF-295 CNS it was 32.5 µM; in the experiment on HL-60(TB) leukemia it was 6.47 µM; in the experiment with ACHN renal, 98.3 µM; in the experiment with SF-268 CNS, above 46.6 µM; with U251 CNS it was 15 µM. Further, the TGI with HT29 colon is 39.2 µM; in the experiment on OVCAR-5 ovarian, 43.7 µM; with HCT-116 colon it was above 41.8 µM.

Turning to `Brc1ccc(C[N+]23CN4CN(CN(C4)C2)C3)cc1`, the TGI with HCT-15 colon was 69 µM; with SF-295 CNS, above 100 µM; with HL-60(TB) leukemia, 58.2 µM; with ACHN renal, above 100 µM; in the experiment on SF-268 CNS, above 100 µM; in the experiment on U251 CNS it was above 100 µM. For the same compound, the TGI with OVCAR-3 ovarian is above 100 µM; with HCT-116 colon, 79.8 µM.

As to `O=C(CSc1nnc(-c2ccc(N=Cc3ccc(Cl)cc3)cc2)o1)Nc1cccc([N+](=O)[O-])c1`, the TGI in the experiment with HCT-15 colon, in the experiment with SF-295 CNS, in the experiment on HL-60(TB) leukemia, in the experiment on ACHN renal, with SF-268 CNS and in the experiment with U251 CNS was above 100 µM each time. The TGI in the experiment on HT29 colon and in the experiment on HCT-116 colon was above 100 µM throughout.

Take `COc1ccc(Oc2nc3c(N)cc(C(F)(F)F)cc3nc2-c2ccccc2)cc1`: the TGI in the experiment on HCT-15 colon was above 100 µM; with SF-295 CNS it was 41.2 µM; in the experiment with HL-60(TB) leukemia it was above 100 µM; with ACHN renal, above 100 µM; with SF-268 CNS, 64.5 µM; in the experiment on U251 CNS it was above 100 µM. The figures for the TGI with HT29 colon and in the experiment on HCT-116 colon were 22.8 µM and above 100 µM, respectively.

As to `N#Cc1c(O)c(C=O)c(=O)n2c1[nH]c1ccccc12`, the TGI with HCT-15 colon, in the experiment with SF-295 CNS, with ACHN renal, in the experiment with SF-268 CNS, with U251 CNS and with HT29 colon was above 100 µM in each case. The TGI in the experiment on OVCAR-5 ovarian, with OVCAR-3 ovarian and in the experiment with HCT-116 colon was above 100 µM each time.

Consider `CCN(CCN(CC)C(=O)NC)C(=O)NC`, for which the TGI with HCT-15 colon, with SF-295 CNS, in the experiment with HL-60(TB) leukemia, in the experiment with ACHN renal, in the experiment with SF-268 CNS and in the experiment with U251 CNS was above 100 µM each time. The TGI with HT29 colon, with OVCAR-5 ovarian and with HCT-116 colon was above 100 µM in each case.

With `COC(=O)[C@@H](NC(=O)c1ccc(CNC(=O)/C(C)=C/c2ccccc2)cc1)C(C)C`, the TGI with HCT-15 colon, in the experiment with SF-295 CNS, with ACHN renal, in the experiment on SF-268 CNS, with U251 CNS and in the experiment on HT29 colon was above 100 µM throughout. The TGI with OVCAR-5 ovarian, in the experiment on OVCAR-3 ovarian and in the experiment with HCT-116 colon was above 100 µM each time.

`COc1c(C)c(C/C=C(\C)CCCCO)c(OC)c2ccccc12`: the TGI was above 100 µM with HCT-15 colon; above 100 µM in the experiment with SF-295 CNS; above 100 µM in the experiment with ACHN renal; above 100 µM in the experiment on SF-268 CNS; above 100 µM with U251 CNS; 43.7 µM in the experiment with HT29 colon. Moreover, the TGI with OVCAR-5 ovarian was above 100 µM; in the experiment with OVCAR-3 ovarian it was above 100 µM; in the experiment with HCT-116 colon it was 88.2 µM.

In the case of `CCSc1[nH]c(NC(=NC(C)C)NC(=O)c2ccccc2)c(C(N)=O)c1C(N)=O`, the TGI with HCT-15 colon, with SF-295 CNS, in the experiment with HL-60(TB) leukemia, in the experiment with SF-268 CNS and in the experiment on HT29 colon was above 10 µM throughout.

For `O=C1C(=O)N(C23CC4CC(CC(C4)C2)C3)C(=S)N1c1ccccc1`, the TGI in the experiment on HCT-15 colon, with SF-295 CNS, with HL-60(TB) leukemia, with ACHN renal, with SF-268 CNS and in the experiment on U251 CNS was above 100 µM in each case. In addition, the TGI with HT29 colon, with OVCAR-5 ovarian and with HCT-116 colon was above 100 µM each time.

For `CN1CCN(Cn2nc(-c3cc(F)c(Cl)cc3Cl)oc2=S)CC1`, the GI50 with HCT-15 colon was 39.7 µM; with SF-295 CNS, 42.4 µM; with HL-60(TB) leukemia, 78.5 µM; in the experiment with ACHN renal it was 34.6 µM; in the experiment on SF-268 CNS, 34.2 µM; in the experiment with U251 CNS, 35.1 µM. For the same compound, the GI50 was 24.5 µM with HT29 colon, above 100 µM with OVCAR-5 ovarian and 37.4 µM in the experiment with OVCAR-3 ovarian. Besides, the TGI in the experiment with HCT-15 colon, in the experiment with SF-295 CNS, with HL-60(TB) leukemia, with ACHN renal, in the experiment on SF-268 CNS and in the experiment with U251 CNS was above 100 µM in each case. Also, the TGI with HT29 colon is 54.7 µM; in the experiment with OVCAR-5 ovarian, above 100 µM; in the experiment on OVCAR-3 ovarian it was above 100 µM.

Take `Cc1csc2c(=O)n(COCc3ccccc3)c(=O)[nH]c12`: the TGI with SF-295 CNS, in the experiment with HL-60(TB) leukemia, in the experiment on ACHN renal, in the experiment with SF-268 CNS, with U251 CNS and in the experiment on HT29 colon was above 100 µM in each case. Moreover, the TGI with OVCAR-5 ovarian, in the experiment on OVCAR-3 ovarian and in the experiment on HCT-116 colon was above 100 µM throughout.

For `O=C1C(c2c(O)[nH]c3ccc(I)cc23)=Nc2ccccc21`, the TGI with HCT-15 colon was above 100 µM; with SF-295 CNS, above 64.4 µM; with HL-60(TB) leukemia, above 100 µM; in the experiment with ACHN renal, 11.8 µM; in the experiment on SF-268 CNS, 17.2 µM; in the experiment with U251 CNS, 7.36 µM. Further, the TGI in the experiment with HT29 colon was above 100 µM; with OVCAR-5 ovarian it was 57.1 µM; in the experiment with OVCAR-3 ovarian it was 29.2 µM.

What is called TGI is the concentration giving total growth inhibition. Low readings indicate more potent growth arrest, high ones less potent growth arrest. Usually GI50 stands for the concentration at which growth is held to half of that of the control.

The record behind these values is PubChem BioAssay (NCI).
